# According to publication PMC6749236, “Synthesis of Novel 2-(Het)arylpyrrolidine Derivatives and Evaluation of Their Anticancer and Anti-Biofilm Activity” (Molecules, 2019):
# Values joined by “and” are separate entries in the source; they are usually repeats but may differ in a detail not shown here. Identical values can stand only once. Marks after values point to notes of the source that are not given here.
# What was measured:
# [1] = system: M-Hela; assay: Cytotoxicity assay (Cytell Cell Imaging, DAPI/propidium iodide), cancer cell line; type: cell-based; conditions: Homo sapiens, M-HeLa, read-out: IC50 Cancer Cell Line M-Hela
# [2] = system: Chang liver cell line; assay: Cytotoxicity assay (Cytell Cell Imaging), normal cell line; type: cell-based; conditions: Homo sapiens, read-out: IC50 Normal Cell Line Chang Liver
# [3] = system: Acinetobacter calcoaceticus VKPM B-10353; assay: Biofilm formation, crystal violet assay; type: cell-based; conditions: A. calcoaceticus VKPM B-10353; for Biofilm Formation: control = 100%; for Biofilm formation with respect to control, over the investigated concentrations: 1 × 10^−9–1 × 10^−5 M
# Procedure: (§1) Bacterial strains and cultivation conditions. For the detection of biofilms, formation strains Vibrio aquamarinus DSM 26054 and Acinetobacter calcoaceticus VKPM B-10353 were used. These strains form biofilms, making them useful for studying biofilms.
# (§2) The bacterial strains Acinetobacter calcoaceticus VKPM B-10353, E. coli MG1655 (pRecA-lux), and E. coli MG1655 (pSoxS-lux) were cultivated in Luria–Bertani (LB) medium under constant shaking to early exponential phase at 37 °C. Cells were used immediately for stress induction tests. One hundred micrograms of ampicillin per milliliter were added into LB medium at cultivation of E. coli MG1655 (pRecA-lux) and E. coli MG1655 (pSoxS-lux). Strain V. aquamarinus DSM 26054 was grown in LB medium supplemented with 3% NaCl.
# (§3) The test compounds were dissolved in DMSO to the concentration of 1 × 10^−2 M. Then, they were diluted with ethanol. The control solutions were analogous dilutions of DMSO in ethanol. The tested compounds were also compared with the standard antibiotic azithromycin. Azithromycin was dissolved in DMSO to the concentration of 5 × 10^−3 M and then diluted with deionized water.
# (§4) Test system for evaluation of biofilms production. To quantify the formation of biofilms, the crystal violet assay was used, with some modifications. The necessary concentrations of the test compounds were prepared as described above.
# (§5) V. aquamarinus DSM 26054 was cultivated for 24 h in LB medium supplemented with 3% NaCl in the Innova 40R shaker incubator (New Brunswick Scientific, USA) at 25 °C and 200 rpm. A. calcoaceticus VKPM B-10353 was cultivated for 24 h in LB medium in the Innova 40R shaker incubator (New Brunswick Scientific, Enfield, CT, USA) at 30 °C and 200 rpm. Then, the suspensions of the daily culture of V. aquamarinus DSM 26054 and A. calcoaceticus VKPM B-10353 were diluted with LB medium supplemented with 3% NaCl to the density of 1 × 10^8 cells/mL.
# (§6) The resulting suspension (180 μL) was added to the wells of a polystyrene microplate (Nuova Aptaca, Canelli, Italy). To some of the wells, 20 μL of the test substances at various concentrations were added. Since solvents used could also influence the biofilm formation, 20 μL of the appropriate solvent was added to the other part of the wells at same dilutions (control). Six replicates were done for each treatment and control. The microplate was covered with a lid and wrapped with Parafilm (Bemis Company, Inc., Oshkosh, WI, USA).
# (§7) After incubation at 25 °C for 72 h, biofilms were stained. The contents in the wells were removed by means of a dispenser. The wells were then carefully washed three times with 250 μL of sterile saline. The microplates were shaken to remove all non-adherent bacteria. Biofilms were fixed with 200 μL of 96% ethanol for 15 min. After the microplates had dried in air, 200 μL of 0.5% crystal violet was introduced into the wells. After 10 min, the dye was removed. The excess dye was removed by washing with water three times. After the microplates were air-dried, the dye in the wells bound to biofilms was dissolved with 200 μL of 96% ethanol. The extraction level (absorption) of crystal violet by ethanol was measured after 60 minutes at a wavelength of 570 nm using a FLUOstar Omega microplate reader (BMG Labtech, Offenburg, Germany) in optical density units (OD570). The intensity of biofilm formation directly corresponds to the intensity of staining of the contents of the wells with the dye. Biofilm formation was determined by the difference between the mean OD readings obtained in the presence of compounds and the control.
# (§8) Each experiment was performed in triplicate. The values were expressed as mean + SD. Student’s t-test was used to compare these values. Differences were considered statistically significant at p < 0.05.
# [4] = system: Vibrio aquamarinus DSM 26054; assay: Biofilm formation, crystal violet assay; type: cell-based; conditions: V. aquamarinus DSM 26054, control = 100%
# Procedure: as §1, §2, §3, §4, §5, §6, §7, §8
# [5] = system: Escherichia coli MG1655 (pRecA-lux); assay: Genotoxicity, bacterial lux-biosensor; type: cell-based
# Text: (§9) E. coli MG1655 (pRecA-lux) was used for the evaluation of the genotoxicity of the synthesized compounds. The biosensor with the PrecA promotor fixes the presence of the factors causing damage of DNA in a cell. The biosensor E. coli MG1655 (pSoxS-lux) was used for the evaluation of prooxidant activity. The biosensor with the PsoxS promoter fixes the production of superoxide anion and NO [75]. Bioluminescent strains were obtained by the transformation of E. coli MG1655 by hybrid plasmids pRecA-lux, pSoxS-lux. The gene cassette luxCDABE Photorhabdus luminescens under the control PrecA promoters was used in this biosensor. This plasmid was created on the basis of pBR322 and contained a selective marker of ampicillin resistance (Amp gene). The strains were kindly furnished by Manukhov I.V., Federal State Unitary Enterprise “GosNIIGenetika”).
# as §2
# (§10) Biosensors assay procedure. The detailed protocol of toxicity testing by means of a bacterial lux-biosensors is described in the article.
# (§11) Calculation. The criterion of toxic influence was bioluminescence intensity change of the test object in the researched sample in comparison with the control sample.
# (§12) The induction factor (I) was defined as the relation of luminescence intensity of a lux-biosensor suspension containing tested sample (Lc) to the luminescence intensity of a lux-biosensor control suspension (Lk): I = Lc/Lk.
# If at significant differences from control induction factor values were ≤2, the detected genotoxic effect was evaluated as “weak”, if they were in the range from 2 to 10 as “medium”, and above 10 as “strong”. All the experiments were carried out three times independently.
# (§13) Difference reliability of bioluminescence in experiment from control value was estimated by t-criterion with the help of Excel software. The conclusions about sample toxicity were made at p < 0.05.
# [6] = system: E. coli MG1655 (pSoxS-lux); assay: Prooxidant activity, bacterial lux-biosensor; type: cell-based, Escherichia coli
# Text: as §9, §2, §10, §11, §12, §13
# [7] = system: P388 murine leukemia; assay: In vivo anti-tumor activity, i.p. implanted leukemia; set-up: species or system BDF1 hybrid male mice; conditions: for ILS / MST ± SD: P388; for Survival: day 60
# Procedure: Animals. In vivo experiments were performed using the BDF1 hybrid male mice of 22–24 g weight. The experimental animals were caged in a standard vivarium in 12 h light conditions with free access to food and water. All manipulations with the animals were performed in accordance with the solutions of the Commission on Bioethics of the Institute of Problems of Chemical Physics, Russian Academy of Sciences (IPCP RAS).
# Anti-tumor activity. The tumors were transplanted intraperitoneally (i.p.) in accordance with a standard procedure inoculum: 10^6 tumor cells in isotonic solution of NaCl, V = 0.2 cm^3 (leukemia P388). Original compounds were injected intraperitoneally as aqueous solution. Doses from 18 to 83 mg/kg/day and the mode of administration on days 1, 5, and 9 after transplantation were used. In each experiment, a single group of tumor-bearing animals not injected with the compounds served as the control group. Each group consisted of six mice. The animals were observed daily for survival for a minimum of 60 days. The efficacy of the therapy against leukemia (defined as increase in lifespan—ILS) was assessed as the percentage of the median survival time (MST) of the treated group (t) to that of the control group (c): ILS(%) = (MSTt/MSTc) × 100.
# Statistics. The experiments were carried out in triplicate. The data are presented in the form X ± SD (mean ± standard deviation). The significance of the differences between the groups was assessed using Student’s t-test. Values of p < 0.05 were considered statistically significant. The data were processed statistically using GraphPad Prism.
# [8] = 18 mg/kg/day i.p., days 1, 5, 9
# [9] = 26 mg/kg/day i.p., days 1, 5, 9
# [10] = 40 mg/kg/day i.p., days 1, 5, 9
# [11] = 55 mg/kg/day i.p., days 1, 5, 9
# [12] = 83 mg/kg/day i.p., days 1, 5, 9
smiles,measurement,setting,value
"O=C(Nc1ccc(F)cc1)N1CCCC1c1cc2c(cc1O)OCO2 (centres unmarked) [5e, N-(4-Fluorophenyl)-2-(6-hydroxybenzo[d][1,3]dioxol-5-yl)pyrrolidine-1-carboxamide]",IC50,[1],> 100 µM
same,IC50,[2],> 100 µM
same,melting point,,184 to 185 °C
"CC[C@H]1OC(=O)[C@H](C)[C@@H](O[C@H]2C[C@@](C)(OC)[C@@H](O)[C@H](C)O2)[C@H](C)[C@@H](O[C@@H]2O[C@H](C)C[C@H](N(C)C)[C@H]2O)[C@](C)(O)C[C@@H](C)CN(C)[C@H](C)[C@@H](O)[C@]1(C)O [Azithromycin, reference compound]",Biofilm Formation,[3]; 1 × 10^−5 M,101.79%
same,Biofilm Formation,[3]; 1 × 10^−6 M,106.07%
same,Biofilm Formation,[3]; 1 × 10^−7 M,105.71%
same,Biofilm Formation,[3]; 1 × 10^−8 M,96.07%
same,Biofilm Formation,[3]; 1 × 10^−9 M,95.00%
same,"Biofilm formation with respect to control, over the investigated concentrations",[3],not detected
same,Biofilm Formation,[4]; 1 × 10^−5 M,81.5% and 81.50 * %
same,Biofilm Formation,[4]; 1 × 10^−6 M,103.80%
same,Biofilm Formation,[4]; 1 × 10^−7 M,99.39%
same,Biofilm Formation,[4]; 1 × 10^−8 M,102.43%
same,Biofilm Formation,[4]; 1 × 10^−9 M,103.42%
"Cc1cc(O)c(C2CCCN2C(=O)Nc2ccc(Br)cc2)c(=O)o1 (centres unmarked) [7d, N-(4-Bromophenyl)-2-(4-hydroxy-6-methyl-2-oxo-2H-pyran-3-yl)pyrrolidine-1-carboxamide]",IC50,[1],> 100 µM
same,IC50,[2],> 100 µM
"O=[N+]([O-])c1c(Cl)cc2c(no[n+]2[O-])c1Nc1cccc(O)c1 [compound 4, 6-Chloro-4-((3-hydroxyphenyl)amino)-5-nitrobenzo[c][1,2,5]oxadiazole 1-oxide]",Biofilm Formation,[3]; 1 × 10^−5 M,149.22* %
same,Biofilm Formation,[3]; 1 × 10^−6 M,97.99%
same,Biofilm Formation,[3]; 1 × 10^−7 M,78.63 * %
same,Biofilm Formation,[3]; 1 × 10^−8 M,62.12 * %
same,Biofilm Formation,[3]; 1 × 10^−9 M,86.67 * %
same,"Biofilm formation with respect to control, over the investigated concentrations",[3],both suppressing and stimulating
same,Biofilm Formation,[4]; 1 × 10^−5 M,96.57%
same,Biofilm Formation,[4]; 1 × 10^−6 M,43.56 * %
same,Biofilm Formation,[4]; 1 × 10^−7 M,11.34 * %
same,Biofilm Formation,[4]; 1 × 10^−8 M,9.31 * %
same,Biofilm Formation,[4]; 1 × 10^−9 M,66.58%
same,"DNA-damaging property, in words","[5]; 10^−9–10^−5 M, with and without S9",do not belong to the class of DNA-damaging substances
same,"Genotoxicity (induction factor, I)","[5]; with metabolic activation (+S9), 10^−5 M",1.11 ± 0.01
same,"Genotoxicity (induction factor, I)","[5]; with metabolic activation (+S9), 10^−6 M",1.28 ± 0.04
same,"Genotoxicity (induction factor, I)","[5]; with metabolic activation (+S9), 10^−7 M",1.18 ± 0.01
same,"Genotoxicity (induction factor, I)","[5]; with metabolic activation (+S9), 10^−8 M",1.11 ± 0.02
same,"Genotoxicity (induction factor, I)","[5]; with metabolic activation (+S9), 10^−9 M",1.19 ± 0.01
same,"Genotoxicity (induction factor, I)","[5]; without metabolic activation (-S9), 10^−5 M",1.10 ± 0.00
same,"Genotoxicity (induction factor, I)","[5]; without metabolic activation (-S9), 10^−6 M",1.27 ± 0.01
same,"Genotoxicity (induction factor, I)","[5]; without metabolic activation (-S9), 10^−7 M",1.14 ± 0.02
same,"Genotoxicity (induction factor, I)","[5]; without metabolic activation (-S9), 10^−8 M",1.27 ± 0.07
same,"Genotoxicity (induction factor, I)","[5]; without metabolic activation (-S9), 10^−9 M",1.21 ± 0.04
same,Prooxidant activity (induction factor),[6]; 10^−5 M,1.64 ± 0.04
same,Prooxidant activity (induction factor),[6]; 10^−6 M,1.54 ± 0.07
same,Prooxidant activity (induction factor),[6]; 10^−7 M,1.74 ± 0.14
same,Prooxidant activity (induction factor),[6]; 10^−8 M,2.08 ± 0.05
same,Prooxidant activity (induction factor),[6]; 10^−9 M,1.85 ± 0.10
same,"effect of superoxide-anion radical or NO level increase, in words",[6]; 10^−9–10^−8 M and 10^−7–10^−5 M,weak effect
"CN(C)CCNC(=O)N1CCCC1c1c(O)c2ccccc2oc1=O.O=C(O)C(F)(F)F (centres unmarked) [8h, 2-(2-(4-Hydroxy-2-oxo-2H-chromen-3-yl)pyrrolidine-1-carboxamido)-N,N-dimethylethan-1-aminium 2,2,2-trifluoroacetate]",IC50,[1],> 100 µM
same,IC50,[2],> 100 µM
same,ILS,[7]; [8],93%
same,MST ± SD,[7]; [8],19.3 ± 8.1 days
same,Survival,[7]; 18 mg/kg/day,17%
same,ILS,[7]; [9],107%
same,MST ± SD,[7]; [9],20.7 ± 8.0 days
same,Survival,[7]; 26 mg/kg/day,17%
same,ILS,[7]; [10],32%
same,MST ± SD,[7]; [10],13.2 ± 1.6 days
same,Survival,[7]; 40 mg/kg/day,0%
same,ILS,[7]; [11],98%
same,MST ± SD,[7]; [11],19.8 ± 8.1 days
same,Survival,[7]; 55 mg/kg/day,17%
same,ILS,[7]; [12],162%
same,MST ± SD,[7]; [12],26.2 ± 10.7 days
same,Survival,[7]; 83 mg/kg/day,33%
same,"antitumor (anti-leukemic) activity, in words","[7]; P388, dose range 18–83 mg/kg/day i.p., days 1, 5, 9",pronounced anti-leukemic activity
